Results published in patent US20090181986A1, “SUBSTITUTED HETEROCYCLIC COMPOUNDS” (priority 2007, published 2009).

How the values were obtained:
hERG potassium channel = hERG potassium channel (Homo sapiens, UniProt Q12809); assay: hERG screening assay (PatchXpress patch clamp, CHO cells)
Procedure: Compounds were screened to test their activity in blocking the hERG potassium channel. The hERG channel is heterologously expressed in a CHO (Chinese Hamster Ovary) cell line. Cells are maintained with standard tissue culture procedures and stable channel expression is maintained with 500 μg/ml G418 in the culture medium. Cells are harvested for testing on the PatchXpress automated patch clamp with Acctumax (Innovative Cell Technologies, San Diego, Calif.) to isolate single cells.
The following solutions are used for electrophysiological recordings. The external solution contains: 2 mM CaCl2; 2 mM MgCl2; 4 mM KCl; 150 mM NaCl; 10 mM Glucose; 10 mM HEPES (pH 7.4 with 1M NaOH, osmolarity).
hERG channels are activated when the voltage is stepped to +20 mV from the −80 mV holding potential (see FIG. 3). During a 5 second step at +20 mV, the channels activate and then largely inactivate, so the currents are relatively small. Upon returning to −50 mV from +20 mV, hERG currents transiently become much larger as inactivation is rapidly removed and then the channel closes. The first step to −50 mV for 300 ms is used as a baseline for measuring the peak amplitude during the step to −50 mV after channel activation. The peak current at −50 mV is measured both under control conditions and after addition of compound.
All compounds are prepared as 10 mM DMSO stocks in glass vials. Stock solutions are mixed by vigorous vortexing and sonication for about 2 minutes at room temperature. For testing, compounds are diluted in glass vials using an intermediate dilution step in pure DMSO and then further diluted to working concentrations in external solution. Dilutions are prepared no longer than 20 minutes before use.
After achieving the whole-cell configuration, cells are monitored for 90 seconds to assess stability and washed with external solution for 66 seconds. The voltage protocol described above is then applied to the cells every 12 seconds and throughout the whole procedure. Only cells with stable recording parameters and meeting specified health criteria are allowed to enter the compound addition procedure.
External solution containing 0.1% DMSO (vehicle) is applied to the cells first to establish the control peak current amplitude. After allowing the current to stabilize for 3 to 5 minutes, 1 μM and then 10 μM test compounds are applied. Each compound concentration is added 4 times and cells are kept in test solution until the effect of the compound reaches steady state or for a maximum of 12 minutes. […] Washout in the external solution compartment is performed until the recovery of the current reaches steady state. Data are analyzed using DataXpress, Clampfit (Molecular Devices, Inc., Sunnyvale) and Origin 7 (Originlab Corp.)

L-type calcium channel = L-type calcium channel activity well-plate assay (IMR-32 cells, Ca-4 dye, FlexStation); format: cell-based, human
Procedure: Cell Culture: IMR-32 (human neuroblastoma) cells were obtained from The American Type Culture Collection. The cells were maintained in MEM supplemented with 10% fetal bovine serum, 2 mM of L-glutamine, 100 IU/ml of penicillin, 50 μg/ml of streptomycin, 1% of sodium pyruvate, 1% of sodium bicarbonate and 1% of non-essential amino acid. […] Culture medium was changed every two days and cells were recultivated when they reached 70-80% confluent.
Assay: IMR-32 cells were seeded on a Microtest 96-well Assay Plate (BD FALCON™) at a density of 200,000 cells/well in 200 μl culture medium for overnight. The culture medium was removed, and replaced by 120 μl Ca-4 dye (MDS Analytical Technologies, Sunnyvale, Calif.) in HBSS (1× Hank's Balanced Salt solution plus 20 mM HEPES, pH 7.4) containing 2 mM probenecid. Cells were then incubated for 1 hour at 37° in incubator. Testing compounds were diluted from 5 μM-50 μM in HBSS, and 40 μl were added in cells before assay. […] The inhibition of L-type calcium channel activity by compounds was then calculated.

Sequence of hERG potassium channel (Q12809 whole entry): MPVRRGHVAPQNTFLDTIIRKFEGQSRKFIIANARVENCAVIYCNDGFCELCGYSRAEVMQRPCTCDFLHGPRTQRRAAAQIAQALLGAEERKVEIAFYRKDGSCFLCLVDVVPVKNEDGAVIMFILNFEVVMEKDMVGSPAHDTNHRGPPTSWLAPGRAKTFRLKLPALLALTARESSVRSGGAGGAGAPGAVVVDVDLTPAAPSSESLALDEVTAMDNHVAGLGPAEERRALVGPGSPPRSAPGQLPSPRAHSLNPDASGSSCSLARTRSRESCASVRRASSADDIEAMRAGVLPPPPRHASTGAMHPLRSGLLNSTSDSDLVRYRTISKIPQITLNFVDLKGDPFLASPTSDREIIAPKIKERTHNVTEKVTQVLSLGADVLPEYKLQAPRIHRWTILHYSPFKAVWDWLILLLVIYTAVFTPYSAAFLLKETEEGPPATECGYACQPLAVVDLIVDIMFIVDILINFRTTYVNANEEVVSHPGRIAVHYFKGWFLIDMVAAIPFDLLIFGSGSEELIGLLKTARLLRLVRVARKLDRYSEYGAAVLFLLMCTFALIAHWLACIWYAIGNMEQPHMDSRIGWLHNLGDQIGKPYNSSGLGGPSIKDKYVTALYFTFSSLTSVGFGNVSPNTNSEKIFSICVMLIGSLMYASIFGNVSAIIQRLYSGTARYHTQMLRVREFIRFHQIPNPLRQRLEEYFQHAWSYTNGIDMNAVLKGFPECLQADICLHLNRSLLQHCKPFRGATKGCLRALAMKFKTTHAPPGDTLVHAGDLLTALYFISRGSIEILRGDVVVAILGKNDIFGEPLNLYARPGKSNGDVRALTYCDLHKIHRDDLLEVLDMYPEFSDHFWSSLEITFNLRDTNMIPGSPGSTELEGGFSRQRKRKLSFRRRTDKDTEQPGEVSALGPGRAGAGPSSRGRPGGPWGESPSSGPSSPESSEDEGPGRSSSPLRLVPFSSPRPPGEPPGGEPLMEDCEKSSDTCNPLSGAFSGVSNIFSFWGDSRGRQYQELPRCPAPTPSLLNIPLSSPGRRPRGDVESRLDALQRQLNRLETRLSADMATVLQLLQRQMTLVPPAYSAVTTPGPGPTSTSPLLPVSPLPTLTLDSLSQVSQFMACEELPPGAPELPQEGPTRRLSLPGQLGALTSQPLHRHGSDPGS

| Compound | hERG Patch Clamp hERG % blk (1 μM test cmpd) (hERG potassium channel) [%] | hERG Patch Clamp hERG % blk (10 μM test cmpd) (hERG potassium channel) [%] | CaL Plate Assay % blk (1 μM test cmpd) (L-type calcium channel) [%] | CaL Plate Assay % blk (10 μM test cmpd) (L-type calcium channel) [%] |
| --- | --- | --- | --- | --- |
| CC1=C(C(=O)OCc2ccccc2)C(c2cc3ccccc3o2)n2nnnc2N1 (stereo not drawn) [PT-045, benzyl 7-(benzofuran-2-yl)-5-methyl-4,7-dihydrotetrazolo[1,5-a]pyrimidine-6-carboxylate] | 10 | 70 | 0 | 98 |
| CCOC(=O)C1=C(C)NC(C)=C(C(=O)OCC)C1c1ccc(CC)o1 [PT-121, diethyl 4-(5-ethylfuran-2-yl)-2,6-dimethyl-1,4-dihydropyridine-3,5-dicarboxylate] |  |  | 35 | 72 |
| CC1=C(C(=O)OCc2ccccc2)C(c2cccc3ccccc23)n2nnnc2N1C (stereo not drawn) [PT-195, benzyl 4,5-dimethyl-7-(naphthalen-1-yl)-4,7-dihydrotetrazolo[1,5-a]pyrimidine-6-carboxylate] | 12.5 | 49 | 0 | 88 |
| CC1=C(C(=O)N2CCC(c3ccc(C(=O)O)cc3)CC2)C(c2cccc3ccccc23)C2=C(CCCC2=O)N1 (stereo not drawn) [PT-173, 4-(1-(2-methyl-4-(naphthalen-1-yl)-5-oxo-1,4,5,6,7,8-hexahydroquinoline-3-carbonyl)piperidin-4-yl)benzoic acid] | 12 | 37 | 0 | 26 |
| CCOC(=O)C1=C(C)NC(C)=C(C(=O)OCC)C1c1cc2ccccc2o1 [PT-122, diethyl 4-(benzofuran-2-yl)-2,6-dimethyl-1,4-dihydropyridine-3,5-dicarboxylate] | 15.5 | 55 | 10 | 63 |
| CCCC1=C(C(=O)OCC)C(c2ccsc2)C2=C(CC(c3ccco3)CC2=O)N1 (stereo not drawn) [PT-150, ethyl 7-(furan-2-yl)-5-oxo-2-propyl-4-(thiophen-3-yl)-1,4,5,6,7,8-hexahydroquinoline-3-carboxylate] |  |  | 4 | 71 |
| CCOC(=O)C1=C(C)NC(C)=C(C(=O)OCC)C1c1sc2ccccc2c1C [PT-116, diethyl 2,6-dimethyl-4-(3-methylbenzo[b]thiophen-2-yl)-1,4-dihydropyridine-3,5-dicarboxylate] | 22.9 | 66 | 6 | 32 |
| CCOC(=O)C1=C(C)NC2=C(C(=O)CCC2)C1c1ccco1 (stereo not drawn) [PT-153, ethyl 4-(furan-2-yl)-2-methyl-5-oxo-1,4,5,6,7,8-hexahydroquinoline-3-carboxylate] | 10.5 | 13.5 | 3 | 44 |
| CCOC(=O)C1=C(C)NC(C)=C(C(=O)OCC)C1c1ccsc1 [PT-110, diethyl 2,6-dimethyl-4-(thiophen-3-yl)-1,4-dihydropyridine-3,5-dicarboxylate] |  |  | 86 | 88 |
| CCOC(=O)C1=C(C)NC2=C(C(=O)CCC2)C1c1ccc(C)c2ccccc12 (stereo not drawn) [PT-135, ethyl 2-methyl-4-(4-methylnaphthalen-1-yl)-5-oxo-1,4,5,6,7,8-hexahydroquinoline-3-carboxylate] |  |  | 24 | 62 |
| CC1=C(C(=O)NCCCCc2ccccc2)C(c2ccsc2)C2=C(CCCC2=O)N1 (stereo not drawn) [PT-164, 2-methyl-5-oxo-N-(4-phenylbutyl)-4-(thiophen-3-yl)-1,4,5,6,7,8-hexahydroquinoline-3-carboxamide] |  |  | 20 | 77 |
| N#CC1=C(N)OC2=C(C(=O)CC(c3ccccc3)C2)C1c1cccs1 (stereo not drawn) [PT-101, 2-amino-5-oxo-7-phenyl-4-(thiophen-2-yl)-5,6,7,8-tetrahydro-4H-chromene-3-carbonitrile] | 19 | 67.5 | 6 | 47 |
| CCOC(=O)C1=C(C)Nc2nnnn2C1c1ccc2ccccc2c1 (stereo not drawn) [PT-008, ethyl 5-methyl-7-(naphthalen-2-yl)-4,7-dihydrotetrazolo[1,5-a]pyrimidine-6-carboxylate] | 10 | 33.5 | 0 | 9 |
| N#CC1=C(N)OC2=C(C(=O)CC(c3ccccc3)C2)C1c1ccco1 (stereo not drawn) [PT-104, 2-amino-4-(furan-2-yl)-5-oxo-7-phenyl-5,6,7,8-tetrahydro-4H-chromene-3-carbonitrile] | 18 | 46 | 0 | 27 |
| CC1=C(C(=O)O[C@@H](C)c2ccccc2)C(c2cccc3ccccc23)n2nnnc2N1 (stereo partly drawn) [PT-048, (S)-1-phenylethyl 5-methyl-7-(naphthalen-1-yl)-4,7-dihydrotetrazolo[1,5-a]pyrimidine-6-carboxylate] |  |  | 0 | 74 |
| CC1=C(C(=O)OC(C)C)C(c2ccc3ccccc3c2)C2=C(CCCC2=O)N1 (stereo not drawn) [PT-157, isopropyl 2-methyl-4-(naphthalen-2-yl)-5-oxo-1,4,5,6,7,8-hexahydroquinoline-3-carboxylate] |  |  | 3 | 43 |
| CC1=C(C(=O)OCC(F)(F)F)C(c2cccc3ccccc23)n2nnnc2N1 (stereo not drawn) [PT-014, 2,2,2-trifluoroethyl 5-methyl-7-(naphthalen-1-yl)-4,7-dihydrotetrazolo[1,5-a]pyrimidine-6-carboxylate] |  |  | 0 | 40 |
| CC1=C(C(=O)OCc2ccccc2)C(c2cc3ccccc3s2)n2nnnc2N1 (stereo not drawn) [PT-043, benzyl 7-(benzo[b]thiophen-2-yl)-5-methyl-4,7-dihydrotetrazolo[1,5-a]pyrimidine-6-carboxylate] |  |  | 23 | 60 |
| CCOC(=O)C1=C(C)NC(C)=C(C(=O)OCC)C1c1csc2ccccc12 [PT-115, diethyl 4-(benzo[b]thiophen-3-yl)-2,6-dimethyl-1,4-dihydropyridine-3,5-dicarboxylate] |  |  | 52 | 65 |
| N#CC1=C(N)OC2=C(C(=O)CC(c3ccccc3)C2)C1c1ccsc1 (stereo not drawn) [PT-102, 2-amino-5-oxo-7-phenyl-4-(thiophen-3-yl)-5,6,7,8-tetrahydro-4H-chromene-3-carbonitrile] |  |  | 6 | 51 |
| CCOC(=O)C1=C(C)Nc2[nH]ncc2C1c1ccccc1Br (stereo not drawn) [PT-448, ethyl 4-(2-bromophenyl)-6-methyl-4,7-dihydro-1H-pyrazolo[3,4-b]pyridine-5-carboxylate] | 10 | 57.5 |  |  |
| CCOC(=O)C1=C(C)Nc2[nH]nc(C)c2C1c1cccc2ccccc12 (stereo not drawn) [PT-074, ethyl 3,6-dimethyl-4-(naphthalen-1-yl)-4,7-dihydro-1H-pyrazolo[3,4-b]pyridine-5-carboxylate] | 14 | 43 |  |  |
| CCOC(=O)C1=C(C)Nc2nnnn2C1c1ccccc1-n1cccn1.Cl (stereo not drawn) [PT-477, ethyl 7-(2-(1H-pyrazol-1-yl)phenyl)-5-methyl-4,7-dihydrotetrazolo[1,5-a]pyrimidine-6-carboxylate hydrochloride] | 12 | 44 |  |  |
| CCOC(=O)C1=C(C)Nc2nccn2C1c1ccc2ccccc2c1 (stereo not drawn) [PT-086, ethyl 7-methyl-5-(naphthalen-2-yl)-5,8-dihydroimidazo[1,2-a]pyrimidine-6-carboxylate] | 13.5 | 57.5 |  |  |
